Earlier results in US11759504B2, “PTH compounds with low peak-to-trough ratios” (Ascendis Pharma Bone Diseases A/S, priority 2016, dated 2023).
Where two headings read alike, the source gives them in different places.

Legend:
[1] = not given; remark: listed apart in the source

Row | Molecule | osteosarcoma rate (rats, daily injections) | osteosarcoma rate (rat, in vivo) | patients who developed hypercalcemia at one or more measurements during a 24-hour period ([1]; human, in vivo) | urinary calcium excretion ([1]; over the 24-hour period after injection) | treated participants who achieved normal blood calcium levels on reduced doses of calcium supplements and active forms of vitamin D ([1]; pivotal trial, once-daily sc)
1 | CC[C@H](C)[C@H](NC(=O)[C@H](CCC(=O)O)NC(=O)[C@H](CO)NC(=O)[C@@H](NC(=O)[C@@H](N)CO)C(C)C)C(=O)N[C@@H](CCC(N)=O)C(=O)N[C@@H](CC(C)C)C(=O)N[C@@H](CCSC)C(=O)N[C@@H](Cc1cnc[nH]1)C(=O)N[C@@H](CC(N)=O)C(=O)N[C@@H](CC(C)C)C(=O)NCC(=O)N[C@@H](CCCCN)C(=O)N[C@@H](Cc1cnc[nH]1)C(=O)N[C@@H](CC(C)C)C(=O)N[C@@H](CC(N)=O)C(=O)N[C@@H](CO)C(=O)N[C@@H](CCSC)C(=O)N[C@@H](CCC(=O)O)C(=O)N[C@@H](CCCN=C(N)N)C(=O)N[C@H](C(=O)N[C@@H](CCC(=O)O)C(=O)N[C@@H](Cc1c[nH]c2ccccc12)C(=O)N[C@@H](CC(C)C)C(=O)N[C@@H](CCCN=C(N)N)C(=O)N[C@@H](CCCCN)C(=O)N[C@@H](CCCCN)C(=O)N[C@@H](CC(C)C)C(=O)N[C@@H](CCC(N)=O)C(=O)N[C@@H](CC(=O)O)C(=O)N[C@H](C(=O)N[C@@H](Cc1cnc[nH]1)C(=O)N[C@@H](CC(N)=O)C(=O)N[C@@H](Cc1ccccc1)C(=O)O)C(C)C)C(C)C [Forteo] | dose dependent increase in osteosarcoma rate |  |  |  | 
2 | Natpara: PTH(1-84), approved 2015 for once-daily subcutaneous injection as adjunct to vitamin D and calcium in hypoparathyroidism |  | dose dependent increase in osteosarcoma rate | 71% | did not change | 42%
